From ChEMBL document CHEMBL1201862, “PubChem BioAssay data set” (2004)
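1) Cells in 96-well plates. 2) Compound, 48 h, 5 concentrations. 3) Linear interpolation between surrounding doses. 4) Unreached endpoint = highest concentration. At the GI50, growth is halved.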 Active and inactive are the calls of the source. Rule as the data show it: active = GI50 up to about 1.1 µM and inactive = higher.

What was measured:
Assay in all cases: DTP human tumour cell line panel, 48 h
[1] = system: SF-295
[2] = system: UACC-257
[3] = system: NCI/ADR-RES
[4] = system: SK-MEL-2
[5] = system: HCC 2998
[6] = system: CCRF-CEM
[7] = system: HOP-62
[8] = system: UACC-62
[9] = system: NCI-H226
[10] = system: MOLT-4
[11] = system: OVCAR-5
[12] = system: NCI-H460
[13] = system: HCT-15
[14] = system: Malme-3M
[15] = system: UO-31
[16] = system: SF-268
[17] = system: HL-60
[18] = system: MDA-MB-435
[19] = system: DU-145

SMILES | GI50 [1] | GI50 [2] | GI50 [3] | GI50 [4] | GI50 [5] | GI50 [6] | GI50 [7] | GI50 [8] | GI50 [9] | GI50 [10] | GI50 [11] | GI50 [12] | GI50 [13] [µM] | GI50 [14] | GI50 [15] | GI50 [16] | GI50 [17] | GI50 [18] | GI50 [19]
Cn1c(-c2ccccc2)cc(-c2cccs2)c1-c1cccs1 | > 100 µM (inactive) | > 35.4 µM (inactive) | > 100 µM (inactive) | > 100 µM (inactive) | 49.5 µM (inactive) | 18.2 µM (inactive) | > 81.3 µM (inactive) | > 100 µM (inactive) | > 100 µM (inactive) | 48.9 µM (inactive) | > 100 µM (inactive) | 71.9 µM (inactive) | 46.2 | > 100 µM (inactive) | > 100 µM (inactive) | > 100 µM (inactive) | 54.8 µM (inactive) |  | 
COC(=O)C1(O)CC(=O)CCC1c1ccc(OC)cc1 (configuration not stated) | > 100 µM (inactive) | > 100 µM (inactive) |  | > 100 µM (inactive) | > 100 µM (inactive) | > 100 µM (inactive) | > 100 µM (inactive) | > 100 µM (inactive) | > 100 µM (inactive) | > 100 µM (inactive) | > 100 µM (inactive) | > 100 µM (inactive) | > 100 | > 100 µM (inactive) | > 100 µM (inactive) | > 100 µM (inactive) | > 100 µM (inactive) |  | 
COc1ccc2[nH]c(=O)cc(C)c2c1[N+](=O)[O-] | > 100 µM (inactive) | > 100 µM (inactive) |  | > 100 µM (inactive) | > 100 µM (inactive) | > 100 µM (inactive) | > 100 µM (inactive) | > 100 µM (inactive) | > 100 µM (inactive) | > 100 µM (inactive) | > 100 µM (inactive) | > 100 µM (inactive) | > 100 | > 100 µM (inactive) | 18.3 µM (inactive) | 82 µM (inactive) | > 100 µM (inactive) |  | 
O=C1NNC2NC(=O)C3(NN2C1=O)c1ccccc1-c1ccccc13 (configuration not stated) | > 100 µM (inactive) | > 100 µM (inactive) | > 100 µM (inactive) | > 100 µM (inactive) | > 100 µM (inactive) | > 100 µM (inactive) | > 100 µM (inactive) | > 100 µM (inactive) | > 100 µM (inactive) |  | > 100 µM (inactive) | > 100 µM (inactive) | > 100 | > 100 µM (inactive) | > 100 µM (inactive) | > 100 µM (inactive) | > 100 µM (inactive) | > 100 µM (inactive) | > 100 µM (inactive)
